Experiments:
PC12 cells = test: Lectin array glycoanalysis (Qproteome Glycoprofiling Kit) of membrane proteins of PC12 cells treated with BFA; format: cell-based; conditions: 12 ug/ml BFA, 24 h
Experimental: (§1) Lectins with differing, well-characterized glycan-binding specificities are spotted on the surface of an array. The array is probed with a biotinylated membrane glycoprotein mixture and washed to reduce background. Bound biotinylated glycoproteins are visualized with Cy®3-labeled streptavidin using a microarray scanner. Following scanning, the resulting images are analyzed using Qiagen GlycoAnalyzer Software.
(§2) Each lectin is printed on the slides at seven concentrations. The analysis provides a lectin fingerprint for each sample: a histogram in which each bar represents the slope of the dose-response curve observed for each lectin. […] All fingerprints in an experiment are preferably normalized to the fingerprint of the reference sample. Microarray technologies generally require normalization between slides to adjust for variations that arise from technology, rather than from biological differences. The normalization in Qproteome Glycoprofiling Kits is preferably based on a robust-regression algorithm (using MM-estimators; please see Example 9 for a description).
Materials and Methods: PC12 cells were treated with 12 ug/ml BFA for 24 h. […] Cells were then harvested and analyzed with the Qproteome Glycoprofiling Kit (Qiagen USA; the assay was performed as described in the kit manual according to manufacturer's instructions).

3T3L1 cells = test: Lectin array glycoanalysis (Qproteome Glycoprofiling Kit) of membrane proteins of 3T3L1 cells treated with DMJ; format: cell-based, mouse; conditions: pre-confluent 3T3L1 cells, 800 ug/ml DMJ, 3 days, FIG. 4
Experimental: as §1, §2
Materials and Methods: Pre-confluent 3T3L1 cells were incubated for 3 days in the presence or absence of 800 ug/ml DMJ. Cells were then harvested and analyzed with the Qproteome Glycoprofiling Kit (Qiagen USA; the assay was performed as described in the kit manual according to manufacturer's instructions).

Row | Structure (SMILES) | cell morphology / attachment (PC12 cells) | antennarity of the membrane glycoproteins (lectin that binds N-linked complex antennary structures) (PC12 cells; FIG. 3) | signals from lectins recognizing terminal sugars such as alpha-galactose, beta-galactose, sialic acid and fucose (PC12 cells; FIG. 3) | antennarity (lectins that bind N-linked complex antennary structures) (3T3L1 cells; vs non-treated cells) | signals from all oligomannose binding lectins (high mannose glycans) (3T3L1 cells; vs non-treated cells) | sugars found on antennae termini such as beta galactose and sialic acid (3T3L1 cells)
1 | C[C@H]1CCC/C=C/[C@@H]2C[C@H](O)C[C@H]2[C@H](O)/C=C/C(=O)O1 [BFA, Brefeldin A] | morphological changes were observed and cells were detached | significant decrease | Decreases | – | – | –
2 | OC[C@H]1NC[C@@H](O)[C@@H](O)[C@@H]1O [DMJ, 1-deoxymannojirimycin] | – | – | – | strongly reduced | significantly increased | decrease
